Consider 2 compounds from PMC3274447, “Fermentation, Isolation, Structure, and antidiabetic activity of NFAT-133 produced by Streptomyces strain PM0324667” (AMB Express, 2011).

“And” between values parts separate entries of the source, which are not always exact repeats. Equal values may be shown once. Read-outs that look alike come from different tables or passages of the source.

In one data set the target is T1, human PPAR-γ (Homo sapiens, UniProt P37231).
T1 construct: expressed in transfected cells; host or cells: CV1 cells, transient transfection with lipofectamine
T1 sequence (P37231 1-505): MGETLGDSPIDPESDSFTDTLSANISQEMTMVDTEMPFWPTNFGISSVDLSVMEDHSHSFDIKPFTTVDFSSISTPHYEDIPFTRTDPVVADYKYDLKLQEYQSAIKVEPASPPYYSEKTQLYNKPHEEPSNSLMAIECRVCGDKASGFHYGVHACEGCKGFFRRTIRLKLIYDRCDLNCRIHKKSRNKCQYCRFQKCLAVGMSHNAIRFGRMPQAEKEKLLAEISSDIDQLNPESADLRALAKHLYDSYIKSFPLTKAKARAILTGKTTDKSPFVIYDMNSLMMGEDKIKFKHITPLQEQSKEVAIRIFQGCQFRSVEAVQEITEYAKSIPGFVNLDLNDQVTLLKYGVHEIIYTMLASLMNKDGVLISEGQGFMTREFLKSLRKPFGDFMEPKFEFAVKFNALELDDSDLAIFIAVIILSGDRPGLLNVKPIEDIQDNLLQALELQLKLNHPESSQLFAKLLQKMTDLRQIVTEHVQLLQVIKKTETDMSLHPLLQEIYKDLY
Description: PPAR-γ luciferase assay in transfected CV1 cells. The format is cell-based. The settings on record: for % hPPAR-γ activation: relative to 1 μM rosiglitazone = 100%, n = 3. As to the method:
PPAR-γ activation is one of the key mechanisms involved in glucose uptake. […] CV1 cells were seeded onto 24 well plates and transient transfections were conducted after over-night incubation using lipofectamine (Invitrogen, CA, USA). Five hours after transfection, the cells were treated with each compound concentration for an additional 24 h, and the luciferase assay (Promega) was performed according to the manufacture's protocol. Luminescence was measured using the Safire2 reader. […] The entire assay was performed in triplicates.

A further data set concerns db/db mice. In words: In vivo activity in male db/db mice, 10 days b.i.d. As to the method: Male db/db mice (7-9 weeks of age) were housed in individually ventilated cages at room temperature of 22°C ± 2°C, humidity at 55 ± 5%, with a 12:12-h light: dark cycle and throughout the study period had access to water and standard chow ad libitum. The guidelines of the Committee for the Purpose of Control and Supervision of Experiments on Animals, Government of India, were followed and the in-house animal ethics committee approved all experimental procedures.
Male db/db mice were divided into three groups of 10 animals each with similar body weight and plasma glucose (mean ± S.E.M.) levels. […] Body weight was measured daily. On day 10, one hour after the last dose, mice were fasted for four hours so as to minimize the variability between the animals. Blood was collected from the fasted mice, plasma was separated by centrifugation (6000 g at 4°C for 7 minutes) and glucose was estimated using a biochemistry auto analyzer (Hitachi Science Systems Limited, Ibaraki, Japan). A small aliquot of separated plasma was stored at -20°C for estimation of insulin using an ELISA assay kit (Linco Research). Immediately after blood sample collection, mice were sacrificed, livers excised and weighed. The data was reproducible in two independent experiments.
All the results are expressed as Mean ± S.E.M. Statistical analysis was done using GraphPad Prism 4 (version 4.03, GraphPad Software, Inc., CA, USA). For comparison between means of more than two groups one-way analysis of variance (ANOVA) followed by Dunnett's post-hoc analysis was employed.

Data set [1] has as its system L6 rat skeletal muscle cells. Description: Glucose uptake (14C-2-deoxyglucose) in insulin-sensitized differentiated L6 myotubes. The format is cell-based. The settings on record: for EC50: Rattus norvegicus, differentiated L6 myotubes in presence of insulin. Here is the method: The metabolite extract library samples were screened for the ability to induce glucose uptake in insulin stimulated differentiated L6 myotubes. The L6 rat skeletal muscle cells were seeded into 96 well cell culture plates in complete medium (α-MEM + 10% fetal bovine serum + 1% penicillin-streptomycin solution) and maintained at 5% carbon dioxide (CO2) atmosphere. After 48 h, the medium was switched to α-MEM with 2% (v/v) fetal bovine serum (FBS) in order to initiate differentiation. Media change was ensured every 48 h. Compound treatment was conducted once the myoblasts differentiated to form myotubes. The differentiated and fused myotubes were starved in serum free α-MEM for 4 h, treated with samples and further incubated for 24 h. Following treatment and incubation, the cells were sensitized with insulin (200 nM) and incubated for 25 minutes. Radioactive glucose pulsing was done at 0.06 μCi/ml for 10 minutes. The reaction was terminated with cold KRPH buffer. The cell-associated radioactivity was determined by lysing the cells with Microscint PS™ followed by liquid scintillation counting ([Huang et al. 2002]). The assay was performed in triplicate.
For all experiments, the L6 myoblasts obtained from ATCC were used only up to passage seven and were utilized within two months post revival of a new vial.

The nature of data set [2]: Pharmacokinetic profile in female db/db mice. It counts as in vivo. The settings on record: for AUC(0-t) / Cmax / Tmax / half-life / AUC(0-inf): mouse, plasma; for AUC(0-inf): read-out: AUC 0-infinity. The source says:
Similarly, troglitazone a PPAR-γ […] agonist increases glucose uptake by inducing GLUT4 translocation in L6 skeletal muscles ([Lessard et al. 2006]; [Yonemitsu et al. 2001]). However, these compounds are PPAR-γ agonists, and have several side-effects that cause increased body weight and hepaptoxicity on chronic exposure. […] Prior to planning an efficacy study we determined the pharmacokinetic profile of NFAT-133 (Figure 5, Table 4) using female db/db mice with n = 4 per time point. […] But, since the compound appeared to have a novel mechanism of action, we decided to explore its in vivo efficacy potential by attempting the intraperitoneal route of administration. NFAT-133 administered by the intraperitoneal route achieved plasma concentrations higher than the in vitro EC50 in skeletal muscles.
Figure 5 Pharmacokinetic data of NFAT-133 by oral (A) and intraperitoneal (B) absorption in female db/db mice at 30 mg/kg.

The test system of data set [3] is transcription factor - NFAT. Further details: method as in Burres et al.1995. The settings on record: Jurkat T-cells; ref Burres et al.1995; cited from earlier work.
For data set [4], the system named is splenocytes derived from Balb/c and C57BL/6 mice. Details: method as in Burres et al.1995. The settings on record: splenocytes from Balb/c and C57BL/6 mice in vitro; ref Burres et al.1995; cited from earlier work.
Where [5] appears, read: 100 mg/kg i.p. b.i.d. 10 days, P < 0.001 vs. vehicle.

For the compound `CC(=O)C(C)C(O)C(C)c1ccc(C)cc1/C=C\CO` (stereo not shown) [NFAT-133], the “% hPPAR-γ activation” value on human PPAR-γ (30 μM) is reported as 0.2%. On human PPAR-γ (100 μM), the “% hPPAR-γ activation” value is 9.0%. On human PPAR-γ (concentrations as high as 100 μM), the “PPAR-γ activity” value is “does not induce PPAR-γ activity”. In the data set with db/db mice (setting [5]), the “plasma glucose levels as compared to vehicle treated animals” value was “significant reduction” and the “plasma insulin levels as compared to vehicle treated animals” value is given as “significant reduction”. The compound further displayed a liver weight with db/db mice (100 mg/kg ip b.i.d. 10 days) of 2.0 ± 0.1 g. Moreover, the “% Change in body weight” value in the data set on db/db mice (100 mg/kg ip b.i.d. 10 days, Mean ± S.E.M., n = 10) is -1.08 ± 1.21% and -1.1 ± 1.2 %. In the data set with db/db mice (100 mg/kg ip b.i.d. 10 days, Mean ± S.E.M., n = 10, the values are: liver weight), this compound returned a liver weight of 2 ± 0.1 g. The EC50 (usually the midpoint of the concentration-response curve) in data set [1] is 6.3 ± 1.8 µM. Besides, in data set [2], the “oral bioavailability” value is reported as “poor oral bioavailability”. Further, in data set [2] (30 mg/kg IP), the AUC(0-t) (usually exposure summed from dosing to a finite time, without extrapolation to infinity) came out at 3220 ng·h/mL; the Cmax (as a rule, the peak of the concentration-time curve) is 11700 ng/mL and 42.2 µM; the Tmax – broadly, the time from dosing to the highest level – was 4.8 min; the half-life (as a rule, the time needed for the level to fall by half in the phase considered) was 112 min. Also, in data set [2] (30 mg/kg IP), the AUC(0-inf) is 3550 ng·h/mL. In data set [2] (30 mg/kg oral), the AUC(0-t) turned out to be 630 ng·h/mL; the Cmax was 3410 ng/mL and 12.3 µM; the Tmax was found to be 4.8 min; the half-life was 9.6 min. Also, the AUC(0-inf) in data set [2] (30 mg/kg oral) amounted to 650 ng·h/mL. The “activation of the transcription factor NFAT” value in data set [3] is “inhibit the activation”. Moreover, the proliferation of splenocytes entry in data set [4] is listed as “block proliferation”.
With `CN(CCOc1ccc(CC2SC(=O)NC2=O)cc1)c1ccccn1` (stereo not shown) [Rosiglitazone, rosiglitazone, reference compound], the liver weight with db/db mice (5 mg/kg po b.i.d. 10 days) stood at 2.7 ± 0.1 g; with db/db mice (5 mg/kg po b.i.d. 10 days, Mean ± S.E.M., n = 10, the values are: liver weight), 2.6 ± 0.1 g. The “% Change in body weight” value in the data set with db/db mice (5 mg/kg po b.i.d. 10 days, Mean ± S.E.M., n = 10) is 14.6 ± 0.8 %; in the data set with db/db mice (5 mg/kg po b.i.d. 10 days, Mean ± S.E.M., n = 10, listed as rosiglitazone) it was 14.63 ± 0.85%. In addition, the “Inference (glucose uptake activity)” value in data set [1] (4 μg/ml) was “Active”. In addition, in data set [1], the EC50 is 6.9 ± 1.8 µM.
